These results are taken from patent publication US20230295197A1, “STAT5 and STAT6 Degraders and Uses Thereof” (REGENTS OF THE UNIVERSITY OF MICHICAN, priority 2022, published 2023).

SMILES strings stand for the structures. Where two headings read alike, the source gives them in different places.

The assay has as its target T1, STAT6 (Homo sapiens, UniProt P42226).
T1 construct: endogenous in cells; host or cells: MOLM-16, KU-812, SKNO1, MB231, L1236
T1 sequence (P42226 1-847): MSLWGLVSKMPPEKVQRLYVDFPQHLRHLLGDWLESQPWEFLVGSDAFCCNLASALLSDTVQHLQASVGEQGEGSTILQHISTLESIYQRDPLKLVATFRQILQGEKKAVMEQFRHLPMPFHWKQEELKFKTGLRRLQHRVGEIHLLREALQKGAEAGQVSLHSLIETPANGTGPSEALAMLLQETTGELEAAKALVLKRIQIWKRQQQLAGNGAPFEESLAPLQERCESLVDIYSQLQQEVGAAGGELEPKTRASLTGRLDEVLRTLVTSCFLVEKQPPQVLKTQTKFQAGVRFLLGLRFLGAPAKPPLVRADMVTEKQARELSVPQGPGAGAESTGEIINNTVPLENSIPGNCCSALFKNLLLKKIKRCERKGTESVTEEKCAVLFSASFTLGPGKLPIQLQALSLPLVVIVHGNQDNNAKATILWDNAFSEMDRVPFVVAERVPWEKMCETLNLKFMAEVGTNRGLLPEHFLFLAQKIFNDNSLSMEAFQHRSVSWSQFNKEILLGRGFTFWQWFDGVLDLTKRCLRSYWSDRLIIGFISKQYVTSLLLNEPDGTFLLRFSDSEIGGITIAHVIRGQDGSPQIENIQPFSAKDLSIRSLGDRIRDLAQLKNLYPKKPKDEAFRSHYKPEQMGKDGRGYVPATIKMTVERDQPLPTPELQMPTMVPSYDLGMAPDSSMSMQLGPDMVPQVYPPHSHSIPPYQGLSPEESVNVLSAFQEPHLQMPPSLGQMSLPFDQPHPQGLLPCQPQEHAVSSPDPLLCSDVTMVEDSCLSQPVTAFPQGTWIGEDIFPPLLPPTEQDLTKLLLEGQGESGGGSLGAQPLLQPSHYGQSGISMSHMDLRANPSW
Put plainly: Immunoblotting (Western blot) analysis of STAT6 degradation efficiency of degraders in treated cells. Type of assay: cell-based. In outline:
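About 1 million cells per point, grown in 10% FBS medium at 37 °C/5% CO2, were exposed to compound at the indicated concentrations and times, then lysed in RIPA buffer with protease and phosphatase inhibitors. Equal protein (20-40 μg) was resolved by SDS-PAGE, blotted to PVDF, and probed with anti-STAT5, anti-STAT6 and anti-GAPDH antibodies.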
A general note: In western blotting, separated proteins are transferred to a membrane and probed.

The mark [1] stands for this setting: MOLM-16 cells, class symbols, read-out: DC50 S6 MOLM-16.
Setting [2] is: L1236 cells, read-out: DC50 S6 L1236.

In general, DC50 refers to the concentration at which degradation of the target reaches its halfway point. Turning to `CC(C)(C)[C@H](NC(=O)c1cc2cc(C(F)(F)P(=O)(O)O)ccc2s1)C(=O)N1Cc2cc(OCC(=O)NCCCCCCCCC#Cc3ccc4c(c3)C(=O)N(C3CCC(=O)NC3=O)C4=O)ccc2C[C@H]1C(=O)N1CCC[C@H](c2ccccc2)C1` (stereo partly drawn) [Compound 560, ((2-(((2S)-1-((3S)-7-(2-((10-(2-(2,6-dioxopiperidin-3-yl)-1,3-dioxoisoindolin-5-yl)dec-9-yn-1-yl)amino)-2-oxoethoxy)-3-((R)-3-phenylpiperidine-1-carbonyl)-3,4-dihydroisoquinolin-2(1H)-yl)-3,3-dimethyl-1-oxobutan-2-yl)carbamoyl)benzo[b]thiophen-5-yl)difluoromethyl)phosphonic acid], the DC50 under setting [1] is > 10 µM. `CC(C)(C)[C@H](NC(=O)c1cc2cc(C(F)(F)P(=O)(O)O)ccc2s1)C(=O)N1CCN(C(=O)CCCCCC#Cc2ccc3c(c2)CN(C2CCC(=O)NC2=O)C3=O)C[C@H]1C(=O)N1CCO[C@H](c2ccccc2)C1` (stereo partly drawn) [Compound 596, ((2-(((2S)-1-((2S)-4-(8-(2-(2,6-dioxopiperidin-3-yl)-1-oxoisoindolin-5-yl)oct-7-ynoyl)-2-((R)-2-phenylmorpholine-4-carbonyl)piperazin-1-yl)-3,3-dimethyl-1-oxobutan-2-yl)carbamoyl)benzo[b]thiophen-5-yl)difluoromethyl)phosphonic acid]: for the setting “MOLM-16 cells, numeric bound, read-out: DC50 S6 MOLM-16”, the DC50 is > 0.3 µM. `CC(C)(C)[C@H](NC(=O)c1cc2cc(C(F)(F)P(=O)(O)O)ccc2s1)C(=O)N1C[C@@H](OCC(=O)NCCCCCCCCCC#Cc2cccc3c2C(=O)N(C2CCC(=O)NC2=O)C3=O)C[C@H]1C(=O)N1CCO[C@H](c2ccccc2)C1` (stereo partly drawn) [Compound 491, ((2-(((2S)-1-((2S,4S)-4-(2-((11-(2-(2,6-dioxopiperidin-3-yl)-1,3-dioxoisoindolin-4-yl)undec-10-yn-1-yl)amino)-2-oxoethoxy)-2-((R)-2-phenylmorpholine-4-carbonyl)pyrrolidin-1-yl)-3,3-dimethyl-1-oxobutan-2-yl)carbamoyl)benzo[b]thiophen-5-yl)difluoromethyl)phosphonic acid]: the DC50 under setting [1] is > 10 µM. The same measure, in the same setting: next, `CC(C)(C)[C@H](NC(=O)c1cc2cc(C(F)(F)P(=O)(O)O)ccc2s1)C(=O)N1CCN(C(=O)CC(=O)NCCCCCCCCC#Cc2cccc3c2C(=O)N(C2CCC(=O)NC2=O)C3=O)C[C@H]1C(=O)N1CCC[C@H](c2ccccc2)C1` (stereo partly drawn) [Compound 531, ((2-(((2S)-1-((2S)-4-(3-((10-(2-(2,6-dioxopiperidin-3-yl)-1,3-dioxoisoindolin-4-yl)dec-9-yn-1-yl)amino)-3-oxopropanoyl)-2-((R)-3-phenylpiperidine-1-carbonyl)piperazin-1-yl)-3,3-dimethyl-1-oxobutan-2-yl)carbamoyl)benzo[b]thiophen-5-yl)difluoromethyl)phosphonic acid]: > 10 µM; `CC(C)(C)[C@H](NC(=O)c1cc2cc(C(F)(F)P(=O)(O)O)ccc2s1)C(=O)N1C[C@@H](OCC(=O)NCCCC#Cc2cccc3c2C(=O)N(C2CCC(=O)NC2=O)C3=O)C[C@H]1C(=O)N1CCC[C@H](c2ccccc2)C1` (stereo partly drawn) [Compound 497, ((2-(((2S)-1-((2S,4S)-4-(2-((5-(2-(2,6-dioxopiperidin-3-yl)-1,3-dioxoisoindolin-4-yl)pent-4-yn-1-yl)amino)-2-oxoethoxy)-2-((R)-3-phenylpiperidine-1-carbonyl)pyrrolidin-1-yl)-3,3-dimethyl-1-oxobutan-2-yl)carbamoyl)benzo[b]thiophen-5-yl)difluoromethyl)phosphonic acid]: > 10 µM; `CC(C)(C)[C@H](NC(=O)c1cc2cc(C(F)(F)P(=O)(O)O)ccc2s1)C(=O)N1C[C@@H](OCC(=O)NCC#Cc2cccc3c2C(=O)N(C2CCC(=O)NC2=O)C3=O)C[C@H]1C(=O)N1CCC[C@H](c2ccccc2)C1` (stereo partly drawn) [Compound 493, ((2-(((2S)-1-((2S,4S)-4-(2-((3-(2-(2,6-dioxopiperidin-3-yl)-1,3-dioxoisoindolin-4-yl)prop-2-yn-1-yl)amino)-2-oxoethoxy)-2-((R)-3-phenylpiperidine-1-carbonyl)pyrrolidin-1-yl)-3,3-dimethyl-1-oxobutan-2-yl)carbamoyl)benzo[b]thiophen-5-yl)difluoromethyl)phosphonic acid]: > 10 µM.

For `CC(C)(C)[C@H](NC(=O)c1cc2cc(C(F)(F)P(=O)(O)O)ccc2s1)C(=O)N1C[C@@H](OCCCCCCCCCC#Cc2cccc3c2CN(C2CCC(=O)NC2=O)C3=O)C[C@H]1C(=O)N1CCO[C@H](c2ccccc2)C1` (stereo partly drawn) [Compound 584, ((2-(((2S)-1-((2S,4S)-4-((11-(2-(2,6-dioxopiperidin-3-yl)-1-oxoisoindolin-4-yl)undec-10-yn-1-yl)oxy)-2-((R)-2-phenylmorpholine-4-carbonyl)pyrrolidin-1-yl)-3,3-dimethyl-1-oxobutan-2-yl)carbamoyl)benzo[b]thiophen-5-yl)difluoromethyl)phosphonic acid], the DC50 under setting [2] is > 10 µM and the DC50 under setting [1] was in the range of 0.1 to 1 µM. For the compound `CC(C)(C)[C@H](NC(=O)c1cc2cc(C(F)(F)P(=O)(O)O)ccc2s1)C(=O)N1CCN(C(=O)CC(=O)NCCC#Cc2ccc3c(c2)C(=O)N(C2CCC(=O)NC2=O)C3=O)C[C@H]1C(=O)N1CCO[C@H](c2ccccc2)C1` (stereo partly drawn) [Compound 510, ((2-(((2S)-1-((2S)-4-(3-((4-(2-(2,6-dioxopiperidin-3-yl)-1,3-dioxoisoindolin-5-yl)but-3-yn-1-yl)amino)-3-oxopropanoyl)-2-((R)-2-phenylmorpholine-4-carbonyl)piperazin-1-yl)-3,3-dimethyl-1-oxobutan-2-yl)carbamoyl)benzo[b]thiophen-5-yl)difluoromethyl)phosphonic acid], the DC50 under setting [1] was > 10 µM. As to `CC(C)(C)[C@H](NC(=O)c1cc2cc(C(F)(F)P(=O)(O)O)ccc2s1)C(=O)N1Cc2cc(OCC(=O)NCC#Cc3ccc4c(c3)C(=O)N(C3CCC(=O)NC3=O)C4=O)ccc2C[C@H]1C(=O)N1CCO[C@H](c2ccccc2)C1` (stereo partly drawn) [Compound 536, ((2-(((2S)-1-((3S)-7-(2-((3-(2-(2,6-dioxopiperidin-3-yl)-1,3-dioxoisoindolin-5-yl)prop-2-yn-1-yl)amino)-2-oxoethoxy)-3-((R)-2-phenylmorpholine-4-carbonyl)-3,4-dihydroisoquinolin-2(1H)-yl)-3,3-dimethyl-1-oxobutan-2-yl)carbamoyl)benzo[b]thiophen-5-yl)difluoromethyl)phosphonic acid], under setting [1], the DC50 lay within 1 to 10 µM.

`CC(C)(C)[C@H](NC(=O)c1cc2cc(C(F)(F)P(=O)(O)O)ccc2s1)C(=O)N1Cc2cc(OCC(=O)NCCCCCCCCCC#Cc3ccc4c(c3)C(=O)N(C3CCC(=O)NC3=O)C4=O)ccc2C[C@H]1C(=O)N1CCO[C@H](c2ccccc2)C1` (stereo partly drawn) [Compound 548, ((2-(((2S)-1-((3S)-7-(2-((11-(2-(2,6-dioxopiperidin-3-yl)-1,3-dioxoisoindolin-5-yl)undec-10-yn-1-yl)amino)-2-oxoethoxy)-3-((R)-2-phenylmorpholine-4-carbonyl)-3,4-dihydroisoquinolin-2(1H)-yl)-3,3-dimethyl-1-oxobutan-2-yl)carbamoyl)benzo[b]thiophen-5-yl)difluoromethyl)phosphonic acid]: under setting [1], the DC50 is > 10 µM. As for `O=C1CCC(N2Cc3cc(C#CCCCCCC(=O)N4CC[C@H]5CC[C@@H](C(=O)N6CCOC(c7ccc(F)c(Cl)c7)C6)N5C(=O)[C@@H](NC(=O)c5cc6cc(C(F)(F)P(=O)(O)O)ccc6s5)C4)ccc3C2=O)C(=O)N1` (stereo partly drawn) [Compound 575, ((2-(((5S,8S,10aR)-8-(2-(3-chloro-4-fluorophenyl)morpholine-4-carbonyl)-3-(8-(2-(2,6-dioxopiperidin-3-yl)-1-oxoisoindolin-5-yl)oct-7-ynoyl)-6-oxodecahydropyrrolo[1,2-a][1,5]diazocin-5-yl)carbamoyl)benzo[b]thiophen-5-yl)difluoromethyl)phosphonic acid], the DC50 reads like this: under setting [2], > 10 µM; under setting [1], > 10 µM. As for `Cc1ncsc1-c1ccc([C@H](C)NC(=O)[C@@H]2C[C@@H](O)CN2C(=O)[C@@H](NC(=O)CCCCCNC(=O)COc2ccc3c(c2)CN(C(=O)[C@@H](NC(=O)c2cc4cc(C(F)(F)P(=O)(O)O)ccc4s2)C(C)(C)C)[C@H](C(=O)N2CCO[C@H](c4ccccc4)C2)C3)C(C)(C)C)cc1` [Compound 465, (difluoro(2-(((S)-1-((S)-7-(2-((6-(((S)-1-((2S,4R)-4-hydroxy-2-(((S)-1-(4-(4-methylthiazol-5-yl)phenyl)ethyl)carbamoyl)pyrrolidin-1-yl)-3,3-dimethyl-1-oxobutan-2-yl)amino)-6-oxohexyl)amino)-2-oxoethoxy)-3-((R)-2-phenylmorpholine-4-carbonyl)-3,4-dihydroisoquinolin-2(1H)-yl)-3,3-dimethyl-1-oxobutan-2-yl)carbamoyl)benzo[b]thiophen-5-yl)methyl)phosphonic acid], the DC50 was > 10 µM under setting [2] and > 10 µM under setting [1].
